From US9751876B2, “Bicyclic heterocycle derivatives for the treatment of pulmonary arterial hypertension” (Novartis AG, priority 2011, dated 2017)
Structures can show the parent of a compound that is named as a salt.

What follows are compounds tested on PDGFR (assay: Rat A10 cell proliferation assay). Conditions: Rat A10 cells, 1% FBS, 10 ng/mL recombinant rat PDGF-BB, 68 hours with compound, CellTiter-Glo luminescence.
Assay type: cell-based
Experimental: Compounds of Formula (I), (II) or (III) provided herein were assayed to measure their capacity to inhibit PDGFR kinases using the appropriate assay described below: PDGFR inhibition was evaluated using the Rat A10 cell proliferation.
Rat A10 Cell Proliferation Assay
Rat A10 cells (ATCC) were resuspended in DMEM supplemented with 1% FBS and 10 ng/mL recombinant rat PDGF-BB at 20,000 cells/mL. The cells were aliquoted into 384 well plates at 50 μL/well and incubated for 4 hours at 37° C. […] The plates were returned to the incubator for a further 68 hours. 25 μL of CellTiter-Glo (Promega) was added to each well and the plates were incubated on the bench for 15 minutes. Luminescence was then read using a CLIPR CCD camera (Molecular Devices).
Data were analysed using non-linear regression fitted to sigmoidal (variable slope) curves using a four parameter logistic equation to generate IC50 values for each compound.

Compound	IC50 [nM]
Cc1ncc(C(=O)NCCN2CCCC2(C)C)cc1NC(=O)c1cnn2cc(-c3ccc(C(=O)NC(C)(C)CO)c(F)c3)ccc12 [Example 7.6, N-(5-(2-(2,2-Dimethylpyrrolidin-1-yl)ethylcarbamoyl)-2-methylpyridin-3-yl)-6-(3-fluoro-4-(1-hydroxy-2-methylpropan-2-ylcarbamoyl)phenyl)pyrazolo[1,5-a]pyridine-3-carboxamide]	182
CN(C)CCCOc1ccc(-c2ccn3c(C(=O)Nc4cc(C(=O)NCCOC(C)(C)C)ccc4F)cnc3c2)cn1 [Example 2.1, N-(5-(2-tert-Butoxyethylcarbamoyl)-2-fluorophenyl)-7-(6-(3-(dimethylamino)propoxy)pyridin-3-yl)imidazo[1,2-a]pyridine-3-carboxamide]	3
COCCN(C)Cc1cncc(-c2ccn3c(C(=O)Nc4cc(C(=O)NC[C@H]5CCC(C)(C)O5)ccc4F)cnc3c2)c1 [Example 2.6, (R)-N-(5-(((5,5-dimethyltetrahydrofuran-2-yl)methyl)carbamoyl)-2-fluorophenyl)-7-(5-(((2-methoxyethyl)(methyl)amino)methyl)pyridin-3-yl)imidazo[1,2-a]pyridine-3-carboxamide]	16
C[C@@H]1CCC[C@H](C)N1CCNC(=O)c1ccc(F)c(NC(=O)c2cnc3cc(-c4cccnc4)ccn23)c1 [Example 1.16, 1-(2-(4-fluoro-3-(7-(pyridine-3-yl)imidazo[1,2-a]pyridine-3-carboxamido)benzamido)ethyl)-2,6-cis-dimethylpiperidinium chloride]	27
CN(C)CCCOc1ccc(-c2ccn3c(C(=O)Nc4cc(C(=O)NCc5ccc(F)c(F)c5)ccc4F)cnc3c2)cn1 [Example 1.9, N-(5-(3,4-difluorobenzylcarbamoyl)-2-fluorophenyl)-7-(6-(3-(dimethylamino)propoxy)pyridine-3-yl)imidazo[1,2-a]pyridine-3-carboxamide]	11
CC(C)(O)CCc1ccn2c(C(=O)Nc3cc(C(=O)NCc4ccc(F)c(F)c4)ccc3F)cnc2c1 [Example 6.1, N-(5-(3,4-Difluorobenzylcarbamoyl)-2-fluorophenyl)-7-(3-hydroxy-3-methylbutyl)imidazo[1,2-a]pyridine-3-carboxamide]	41
O=C(NCc1ccc(F)c(F)c1)c1ccc(F)c(NC(=O)c2cnc3cc(-c4ccc(C(=O)NCCCN5CCOCC5)c(F)c4)ccn23)c1 [Example 8.1, N-(5-(3,4-Difluorobenzylcarbamoyl)-2-fluorophenyl)-7-(3-fluoro-4-(3-morpholinopropylcarbamoyl)phenyl)imidazo[1,2-a]pyridine-3-carboxamide hydrochloride]	4
CN1CCC(Oc2ccc(-c3ccn4c(C(=O)Nc5cc(C(=O)NCC6CCC(C)(C)O6)ccc5F)cnc4c3)cn2)CC1 (stereo not drawn) [Example 3.3, N-(5-(((5,5-dimethyltetrahydrofuran-2-yl)methyl)carbamoyl)-2-fluorophenyl)-7-(6-((1-methylpiperidin-4-yl)oxy)pyridin-3-yl)imidazo[1,2-a]pyridine-3-carboxamide]	10
CC1CC(C)CN(CCNC(=O)c2ccc(F)c(NC(=O)c3cnc4cc(-c5cnn(C)c5)ccn34)c2)C1 (stereo not drawn) [Example 9.4, N-(5-((2-(3,5-Dimethylpiperidin-1-yl)ethyl)carbamoyl)-2-fluorophenyl)-7-(1-methyl-1H-pyrazol-4-yl)imidazo[1,2-a]pyridine-3-carboxamide]	128
Cc1ncc(C(=O)NCc2ccccc2N2CCN(C)CC2)cc1NC(=O)c1cnc2cc(-c3ccnn3C)ccn12 [Example 1.19, 1-methyl-4-(2-((6-methyl-5-(7-(1-methyl-1H-pyrazol-5-yl)imidazo[1,2-a]pyridine-3-carboxamido)nicotinamido)methyl)phenyl)piperazin-1-ium chloride]	74
C[C@@H]1CCC[C@H](C)N1CCNC(=O)c1ccc(F)c(NC(=O)c2cnc3cc(-c4cnn(C)c4)ccn23)c1 [Example 1.20, 7-(1-Methyl-1H-pyrazol-4-yl)-imidazo[1,2-a]pyridine-3-carboxylic acid {5-[2-(2,6-cis-dimethyl-piperidin-1-yl)-ethylcarbamoyl]-2-fluoro-phenyl}-amide hydrochloride]	13
O=C(NCc1ccc(F)c(F)c1)c1ccc(F)c(NC(=O)c2cnc3cc(-c4ccc(OCCN5CCCC5)nc4)ccn23)c1 [Example 3.1, N-(5-(3,4-Difluorobenzylcarbamoyl)-2-fluorophenyl)-7-(6-(2-(pyrrolidin-1-yl)ethoxy)pyridin-3-yl)imidazo[1,2-a]pyridine-3-carboxamide hydrochloride]	13
CN1CCN(c2ccccc2CNC(=O)c2ccc(F)c(NC(=O)c3cnc4cc(-c5cc(F)cc(C(=O)NCCO)c5)ccn34)c2)CC1 [Example 8.4, N-(2-Fluoro-5-(2-(4-methylpiperazin-1-yl)benzylcarbamoyl)phenyl)-7-(3-fluoro-5-(2-hydroxyethylcarbamoyl)phenyl)imidazo[1,2-a]pyridine-3-carboxamide]	112
C[C@@H]1CCC[C@H](C)N1CCNC(=O)c1ccc(F)c(NC(=O)c2cnc3cc(-c4ccc(C(=O)NC(C)(C)CO)c(F)c4)ccn23)c1 [Example 8.2, N-(5-(2-(2,6-cis-Dimethylpiperidin-1-yl)ethylcarbamoyl)-2-fluorophenyl)-7-(3-fluoro-4-(1-hydroxy-2-methylpropan-2-ylcarbamoyl)phenyl)imidazo[1,2-a]pyridine-3-carboxamide]	8
CCCC1CCN(CCNC(=O)c2ccc(F)c(NC(=O)c3cnc4cc(-c5cnn(C)c5)ccn34)c2)C1 (stereo not drawn) [Example 9.2, N-(2-Fluoro-5-((2-(3-propylpyrrolidin-1-yl)ethyl)carbamoyl)phenyl)-7-(1-methyl-1H-pyrazol-4-yl)imidazo[1,2-a]pyridine-3-carboxamide]	11
CC[C@@H]1CN(CCNC(=O)c2ccc(F)c(NC(=O)c3cnc4cc(-c5cnn(C)c5)ccn34)c2)[C@H]1CC [Example 9.15, N-(5-((2-((2S,3R)-2,3-diethylazetidin-1-yl)ethyl)carbamoyl)-2-fluorophenyl)-7-(1-methyl-1H-pyrazol-4-yl)imidazo[1,2-a]pyridine-3-carboxamide]	2
CC(C)(C)OCCNC(=O)c1ccc(F)c(NC(=O)c2cnc3cc(-c4ccc(OCCN5CCCC5)nc4)ccn23)c1 [Example 3.2, N-(5-((2-(tert-Butoxy)ethyl)carbamoyl)-2-fluorophenyl)-7-(6-(2-(pyrrolidin-1-yl)ethoxy)pyridin-3-yl)imidazo[1,2-a]pyridine-3-carboxamide]	15
CC(C)(CO)NC(=O)c1ccc(-c2ccn3c(C(=O)Nc4cc(C(=O)NCCN5CCCC5(C)C)ccc4F)cnc3c2)cc1F [Example 7.5, N-(5-(2-(2,2-Dimethylpyrrolidin-1-yl)ethylcarbamoyl)-2-fluorophenyl)-7-(3-fluoro-4-(1-hydroxy-2-methylpropan-2-ylcarbamoyl)phenyl)imidazo[1,2-a]pyridine-3-carboxamide]	8
CN1CCN(c2ccccc2CNC(=O)c2ccc(F)c(NC(=O)c3cnc4cc(-c5ccc(C(=O)NCCO)c(F)c5)ccn34)c2)CC1 [Example 1.2, 7-(3-Fluoro-4-(2-hydroxyethylcarbamoyl)phenyl)-N-(2-fluoro-5-(2-(4-methylpiperazin-1-yl)benzylcarbamoyl)phenyl)imidazo[1,2-a]pyridine-3-carboxamide]	40
Cc1ncc(C(=O)NCCN2CCCCC2(C)C)cc1NC(=O)c1cnn2cc(-c3cnn(C)c3)ccc12 [Example 9.13, N-(5-((2-(2,2-Dimethylpiperidin-1-yl)ethyl)carbamoyl)-2-methylpyridin-3-yl)-6-(1-methyl-1H-pyrazol-4-yl)pyrazolo[1,5-a]pyridine-3-carboxamide]	7
Cc1ccc(C(=O)NCc2ccccc2N2CCN(C)CC2)cc1NC(=O)c1cnn2cc(-c3ccnn3C)ccc12 [Example 4.1, 6-(1-Methyl-1H-pyrazol-5-yl)-N-(2-methyl-5-(2-(4-methylpiperazin-1-yl)benzylcarbamoyl)phenyl)pyrazolo[1,5-a]pyridine-3-carboxamide hydrochloride]	12
